Among the data in patent publication US20060004428A1, “Pyrrolo (3,4-c) carbazole and pyrido (2,3-b) pyrrolo (3,4-e) indole derivatives, preparation method and pharmaceutical compositions containing same” (priority 2002, published 2006) are IC50 and melting point values, retold here.

One series relates to L1210 murine leukaemia. Kind of series: In vitro cytotoxicity, Microculture Tetrazolium Assay, L1210. It counts as cell-based. To be noted: Mus musculus, exposure 4 doubling periods, or 48 hours, read-out: IC50, the concentration of cytotoxic agent which inhibits the proliferation of the treated cells by 50%. How it is done: (§1) Four cell lines were used: • L1210 murine leukaemia • A549 human non-small-cell lung carcinoma • HT29 human colon carcinoma • DU145 prostate carcinoma
(§2) L1210 murine leukaemia was used in vitro. The cells are cultured in RPMI 1640 complete culture medium containing 10% foetal calf serum, 2 mM glutamine, 50 units/ml of penicillin, 50 μg/ml of streptomycin and 10 mM Hepes, pH: 7.4. The cells are distributed on microplates and are exposed to the cytotoxic compounds for 4 doubling periods, or 48 hours. The number of viable cells is then quantified by a calorimetric assay, the Microculture Tetrazolium Assay (J. Carmichael et al., Cancer Res.; 47, 936-942 (1987)). The results are expressed as the IC50, the concentration of cytotoxic agent which inhibits the proliferation of the treated cells by 50%.

Series [1] relates to HT29 human colon carcinoma. Briefly: In vitro cytotoxicity, Microculture Tetrazolium Assay, HT29. The following applies: HT-29, read-out: IC50, the concentration of cytotoxic agent which inhibits the proliferation of the treated cells by 50%. Type of series: cell-based. The protocol:
as §1, §2

Series [2] has as its system A549 human non-small-cell lung carcinoma. Kind of series: In vitro cytotoxicity, Microculture Tetrazolium Assay, A549. It counts as cell-based. The following applies: read-out: IC50, the concentration of cytotoxic agent which inhibits the proliferation of the treated cells by 50%. The protocol: as §1, §2
The test system of the next series is DU145 prostate carcinoma. Briefly: In vitro cytotoxicity, Microculture Tetrazolium Assay, DU145. It counts as cell-based. The following applies: Homo sapiens, DU-145, read-out: IC50, the concentration of cytotoxic agent which inhibits the proliferation of the treated cells by 50%. How it is done: as §1, §2

The compound `O=C1NC(=O)c2c1c1c3ccccc3[nH]c1c1cccn21` [Example 1, Pyrrolo[3′,4′:5,6]indolizino[8,7-b]indole-1,3(2H,8H)dione] displayed a melting point of 218 to 220 °C. Further, the IC50 with L1210 murine leukaemia was found to be 3.1 µM. The IC50 in series [1] is 3.3 µM. In addition, the IC50 in series [2] stood at 1.99 µM. Besides, the IC50 in the series on DU145 prostate carcinoma worked out at 1.4 µM.
`CN1C(=O)c2c(n3cccc3c3[nH]c4ccccc4c23)C1=O` [Example 2, 2-Methylpyrrolo[3′,4′:5,6]indolizino[8,7-b]indole-1,3(2H,8H)dione]: the melting point lay within 226 to 228 °C.
On the same count and under the same terms, the value for `O=C1NC(=O)c2c1c1c3cc(OCc4ccccc4)ccc3[nH]c1c1cccn21` [Example 3, 11-(Benzyloxy)pyrrolo[3′,4′:5,6]indolizino[8,7-b]indole-1,3(2H,8H)-dione] was 275 °C; that for `O=C1NC(=O)c2c1c1c3cc(Br)ccc3[nH]c1c1cccn21` [Example 7, 11-Bromopyrrolo[3′,4′:5,6]indolizino[8,7-b]indole-1,3(2H,8H)-dione] was greater than 300 °C.
Consider `CN1C(=O)c2c(n3cccc3c3[nH]c4ccc(Br)cc4c23)C1=O` [Example 8, 11-Bromo-2-methylpyrrolo[3′,4′:5,6]indolizino[8,7-b]indole-1,3(2H,8H)-dione], for which the melting point was greater than 300 °C.
The same measure, in the same setting: the figure for `O=C1NC(=O)c2c1c1c3cc(Cl)ccc3[nH]c1c1cccn21` [Example 9, 11-Chloropyrrolo[3′,4′:5,6]indolizino[8,7-b]indole-1,3(2H,8H)-dione] is 298 to 304 °C; for `CN1C(=O)c2c(n3cncc3c3[nH]c4ncccc4c23)C1=O` [Example 18, 2-Methylimidazo[1,5-a]pyrido[3′,2′:4,5]pyrrolo[2,3-c]pyrrolo[3,4-e]-Pyridine-1,3(2H,8H)-dione] it is 304 to 307 °C.
On the same count and under the same terms, the figure for `CN1C(=O)C2c3c([nH]c4ncccc34)-c3nccn3C2C1=O` (stereo not shown) [Example 19, 6-Methyl-7a,12-dihydroimidazo[1,2-a]pyrido[3′,2′:4,5]pyrrolo[2,3-c]-pyrrolo[3,4-e]pyridine-5,7(4aH,6H)-dione] is 222 to 224 °C; for `CC(=O)OC[C@H]1O[C@@H](n2c3ncccc3c3c4c(n5cncc5c32)C(=O)N(C)C4=O)[C@H](OC(C)=O)[C@@H](OC(C)=O)[C@@H]1OC(C)=O` [Example 21, 2-Methyl-8-(2,3,4,6-tetra-O-acetyl-β-D-glucopyranosyl)-imidazo-[1,5-a]pyrido[3′,2′:4,5]pyrrolo[2,3-c]pyrrolo[3,4-e]pyridine-1,3(2H,8H)-dione] it is 204 °C.
